Data as given in article PMC10302582, “Unveiling the Potential of BenzylethyleneAryl–Urea Scaffolds for the Design of New Onco Immunomodulating Agents” (Pharmaceuticals, 2023).

Experiments:
[1] = tested on: HT-29 (colon adenocarcinoma); test: MTT cell proliferation assay, HT-29; format: cell-based; conditions: Homo sapiens, HT-29; MTT, 48 h treatment; read-out: IC50 HT-29
Method: (§1) After the supernatant was discarded, we solved the formazan crystal in 100 µL of DMSO. The absorbance was then registered at 550 nm using a plate lector. For all concentrations of any compound, cell viability was expressed as the percentage of the ratio between the mean absorbance of the treated cells and the mean absorbance of the untreated cells. Three to five experiments were performed to establish the IC50 values (i.e., concentration half inhibiting cell proliferation, we used GraphPad Prism 7 software).

[2] = tested on: A-549 (pulmonary adenocarcinoma); test: MTT cell proliferation assay, A-549; format: cell-based; conditions: Homo sapiens, A549; MTT, 48 h treatment; read-out: IC50 A-549
Method: as §1

[3] = tested on: HEK-293 (human embryonic kidney cells); test: MTT cell proliferation assay, HEK-293; format: cell-based; conditions: HEK293, 48 h treatment
Method: (§2) The action on cell proliferation caused by our developed compounds was studied using an MTT assay using the human tumor cell lines of HT-29 (colon adenocarcinoma) and A-549 (pulmonary adenocarcinoma), as well as toward the non-tumor cell line HEK-293 (human embryonic kidney cells), Jurkat T-cells and human microvessel endothelial cells (HMEC-1).
(§3) In general, 5 × 10^3 (HT-29, A549, HMEC-1, Jurkat and HEK-293) cells per well were seeded in 96-well plates with 1:1 dilutions of the compounds in a volume of 100 μL of the cell media. The 3-(4,5-dimethylthiazol-2-yl)-2,5-diphenyltetrazolium bromide (MTT; Sigma Chemical Co.) dye exclusion assay was performed, and after 48 h (37 °C, 5% CO2 in a humid atmosphere), 10 μL of MTT (5 mg/mL in phosphate-buffered saline, PBS) was added to each well and incubated for 3 h at 37 °C. After the supernatant was discarded, we solved the formazan crystal in 100 µL of DMSO. The absorbance was then registered at 550 nm using a plate lector. For all concentrations of any compound, cell viability was expressed as the percentage of the ratio between the mean absorbance of the treated cells and the mean absorbance of the untreated cells. Three to five experiments were performed to establish the IC50 values (i.e., concentration half inhibiting cell proliferation, we used GraphPad Prism 7 software).

[4] = tested on: Jurkat T-cells; test: MTT cell proliferation assay, Jurkat T-cells; format: cell-based; conditions: 48 h treatment
Method: as §2, §3

[5] = tested on: human microvessel endothelial cells (HMEC-1); test: MTT cell proliferation assay, HMEC-1; format: cell-based; conditions: 48 h treatment
Method: as §2, §3

[6] = target: T1, PD-L1 (Homo sapiens, UniProt Q9NZQ7); test: PD-L1 relative quantification by flow cytometry in HT-29 cells; format: cell-based; conditions: for total PD-L1 (%) expression: HT-29 cells, 24 h, relative to DMSO control = 100
T1 construct: assess the effect of our new ureas on these two proteins only on the HT-29 cancer cell line through the use of flow cytometry; endogenous in cells; host or cells: HT-29
T1 sequence (Q9NZQ7 19-290): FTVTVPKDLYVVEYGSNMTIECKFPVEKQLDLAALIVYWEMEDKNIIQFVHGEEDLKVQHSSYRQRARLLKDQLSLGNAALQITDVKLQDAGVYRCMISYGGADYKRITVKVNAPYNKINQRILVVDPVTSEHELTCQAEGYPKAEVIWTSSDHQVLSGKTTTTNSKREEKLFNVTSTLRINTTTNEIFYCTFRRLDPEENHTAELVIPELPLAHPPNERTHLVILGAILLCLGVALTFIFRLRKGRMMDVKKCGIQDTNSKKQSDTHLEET
Method: (§4) The cells were incubated for a period of time of one day with doses of each of the selected compounds at two different doses: 20 and 100 µM concentrations.
(§5) The effects of the compounds on the target in the cancer cell lines compounds were tested using 20 and 100 µM doses. For that, 10^5 cells per well were seeded on a 12-well plate for 24 h with the corresponding dose of the tested compound in a total volume of 500 μL of cell media. To determine the total PD-L1 and VEGFR-2, the cells were collected and fixed with 4% in a PBS of formaldehyde. After this, a treatment with 0.5% in PBS Triton^TM X-100 permeabilized the membranes. Finally, the cells were treated with FITC Mouse monoclonal Anti-Human VEGFR-2 (ab184903) and Alexa Fluor® 647 Rabbit monoclonal Anti-PD-L1 (ab215251).
(§6) To determine surface PD-L1 and VEGFR-2, the assay used was similar to the above but avoided the permeabilization step (Triton^TM X-100).

[7] = target: T2, VEGFR-2 (Homo sapiens, UniProt P35968); test: VEGFR-2 relative quantification by flow cytometry in HT-29 cells; format: cell-based; conditions: HT-29 cells, 20 μM, 24 h, relative to DMSO control = 100
T2 construct: assess the effect of our new ureas on these two proteins only on the HT-29 cancer cell line through the use of flow cytometry; endogenous in cells; host or cells: HT-29
T2 sequence (P35968 20-1356): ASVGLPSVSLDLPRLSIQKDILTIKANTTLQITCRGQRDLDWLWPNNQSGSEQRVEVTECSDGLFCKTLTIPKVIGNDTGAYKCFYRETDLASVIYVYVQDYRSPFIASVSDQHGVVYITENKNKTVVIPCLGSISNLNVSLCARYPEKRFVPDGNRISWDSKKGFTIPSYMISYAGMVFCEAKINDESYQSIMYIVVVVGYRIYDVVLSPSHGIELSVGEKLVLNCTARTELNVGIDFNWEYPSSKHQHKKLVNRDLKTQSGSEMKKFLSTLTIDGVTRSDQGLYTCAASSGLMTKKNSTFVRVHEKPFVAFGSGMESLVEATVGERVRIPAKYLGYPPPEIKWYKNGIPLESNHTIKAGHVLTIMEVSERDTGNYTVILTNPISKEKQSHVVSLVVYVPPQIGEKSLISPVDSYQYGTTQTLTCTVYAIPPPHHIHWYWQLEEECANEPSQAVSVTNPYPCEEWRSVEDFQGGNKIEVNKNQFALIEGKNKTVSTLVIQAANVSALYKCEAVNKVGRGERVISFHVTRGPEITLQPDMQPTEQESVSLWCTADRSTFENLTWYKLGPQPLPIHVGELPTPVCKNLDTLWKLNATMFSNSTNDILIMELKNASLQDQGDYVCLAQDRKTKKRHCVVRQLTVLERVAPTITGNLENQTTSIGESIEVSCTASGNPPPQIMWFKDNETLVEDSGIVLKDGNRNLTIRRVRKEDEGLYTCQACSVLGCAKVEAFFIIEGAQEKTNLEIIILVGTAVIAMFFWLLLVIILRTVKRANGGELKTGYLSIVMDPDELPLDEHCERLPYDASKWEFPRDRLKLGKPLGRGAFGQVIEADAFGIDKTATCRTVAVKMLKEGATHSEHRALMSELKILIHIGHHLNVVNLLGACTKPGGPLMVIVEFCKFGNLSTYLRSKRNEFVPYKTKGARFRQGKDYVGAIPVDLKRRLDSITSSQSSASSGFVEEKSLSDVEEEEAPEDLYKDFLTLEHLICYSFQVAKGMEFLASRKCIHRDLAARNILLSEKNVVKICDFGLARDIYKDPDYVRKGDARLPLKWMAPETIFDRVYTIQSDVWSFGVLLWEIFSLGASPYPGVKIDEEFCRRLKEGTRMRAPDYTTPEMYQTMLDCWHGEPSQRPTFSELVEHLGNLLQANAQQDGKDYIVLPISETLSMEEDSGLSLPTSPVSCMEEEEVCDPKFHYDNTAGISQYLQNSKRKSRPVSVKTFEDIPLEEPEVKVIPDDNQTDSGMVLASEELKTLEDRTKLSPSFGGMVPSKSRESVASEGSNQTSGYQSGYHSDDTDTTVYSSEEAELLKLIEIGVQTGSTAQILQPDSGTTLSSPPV
Method: as §4
as §5, with “membranes.” for “membranes. Finally, the cells were treated with FITC Mouse monoclonal Anti-Human VEGFR-2 (ab184903) and Alexa Fluor® 647 Rabbit monoclonal Anti-PD-L1 (ab215251).”
as §6

[8] = tested on: HT-29 cells co-cultured with THP-1; test: Cancer cell proliferation in co-cultures of HT-29 and THP-1; format: cell-based, human; conditions: 100 μM
Method: To establish the potential of the selected compounds as immunomodulator agents, we studied the effect of the selected compounds on HT-29 cell proliferation when co-cultured with human monocytic leukemia cell line THP-1. For the study, we used different proportions of cancer and immune cells. Standard protocol proportions were 1:5 cancer/immune cells. We include a test using a 2:1 proportion of HT-29 cells to THP-1 cells. The tests were performed for two periods of time: 24 and 48 h, using 100 μM doses of the selected compounds and BMS-8 as the reference compound.
(§7) To determine the action of the compounds on cancer cell proliferation in co-culture with immune cells, 10^5 or 2 × 10^5 of the HT-29 cells line were seeded in each well of 12-well plates and left at 37 °C for 24 h. Then, the cancer cells were treated with IFN-γ (10 ng/mL; human, Invitrogen®, Waltham, MA, USA) containing 5 × 10^5 or 10^5, respectively, of THP-1 cells per well and the corresponding compound at 100 μM or DMSO for the positive control. After 24 h/48 h of incubation, the supernatants were collected to establish the alive THP-1 cells using FSC and SCC flow cytometry. In addition, cancer cells were collected with trypsin, fixed with 4% in PBS paraformaldehyde and counted using flow cytometry.

[9] = tested on: THP-1 cells co-cultured with HT-29; test: Immune cell proliferation in co-cultures of HT-29/THP-1; format: cell-based, human; conditions: 100 μM
Method: We also determined the effect of the selected compounds on the human monocyte cells THP-1 in the described co-cultures (see Table 6).
as §7

[10] = tested on: CD80; test: CD80 detection on membrane of co-cultured THP-1; format: cell-based, human; conditions: 1:5 HT-29/THP-1; 24 h; relative to non-treated co-cultured THP-1
Source text: (§8) Reducing the expression of CD11b has become a promising target for immune modulation in anticancer therapies. For that reason, we decided to study the effect of our compounds on CD11b in THP-1 cells co-cultured with HT-29. We also determined the relative amount of CD80, a common surface marker for monocytes.
(§9) The results are related to non-treated THP-1 cells when they were co-cultured with HT-29.
(§10) The action of the compounds on CDs in co-cultured THP-1 immune cells with cancer cell line HT-29 was tested by treating them with the compounds for 24 h/48 h (see Section 4.2.5). Surface CD11b and CD80 was determined by collecting THP-1 with trypsin, fixing with formaldehyde and staining with FITC Mouse monoclonal Anti-Human CD80 (Sigma-Aldrich SAB4700142) and Alexa Fluor® 647 Rabbit monoclonal Anti-CD11b (Merck #MABF366, Rahway, NJ, USA).

[11] = tested on: CD11b; test: CD11b detection on membrane of co-cultured THP-1; format: cell-based, human; conditions: 1:5 HT-29/THP-1; 24 h; relative to non-treated co-cultured THP-1
Source text: as §8, §9, §10

[12] = tested on: HMEC-1 endothelial cells; test: Microvessel formation inhibition assay on Matrigel; format: cell-based, human; conditions: HMEC-1 on Matrigel
Method: The antiangiogenic action of the selected compounds, as well as the reference compounds, was evaluated by determining the effect on the formation of new microvessels formed by HMEC-1 endothelial cells on a Matrigel matrix.
We used IBIDI μ-slide angiogenesis plates (IBIDI, Martins ried, Germany). The wells were coated with 15 μL of Matrigel® (10 mg/mL, BD Biosciences, San Jose, CA, USA) at 4 °C and incubated at 37 °C for at least 30 min. Afterward, the HMEC-1 cells were seeded at 2 × 10^4 cells/well in 25 μL of medium and were left for 30 min at 37 °C while they attached. Then, the compounds were added in serial doses in 25 μL of the medium, and after several hours (maximum 24 h) of incubation at 37 °C, pictures for the wells were taken to evaluate the formation of microvessels.

SMILES	IC50 [1] [µM]	IC50 [2] [µM]	IC50 ([4]; Homo sapiens, Jurkat, 48 h) [µM]	melting point [°C]	IC50 [4] [µM]	IC50 [3] [µM]	IC50 ([5]; Homo sapiens, HMEC-1, 48 h) [µM]	other results
COc1ccc(CCCc2cccc(NC(=O)Nc3ccccc3F)c2)cc1 [C.5]	58 ± 16	29 ± 5	> 100	152	–	24 ± 4	> 100	–
COc1ccc(CCCc2cccc(NC(=O)Nc3cccc(F)c3)c2)cc1 [C.4]	> 100	> 100	> 100	154	–	22 ± 5	> 100	–
COc1ccc(CCCc2cccc(NC(=O)Nc3ccc(Cl)cc3)c2)cc1 [C.6]	4 ± 1	20 ± 10	> 100	179 to 182	–	4 ± 1	> 100	–
COc1ccc(CCCc2cccc(NC(=O)Nc3ccccc3)c2)cc1 [C.2]	25 ± 5	> 100	> 100	157 to 159	–	12 ± 1	> 100	–
CCN(CC)CCNC(=O)c1c(C)[nH]c(/C=C2\C(=O)Nc3ccc(F)cc32)c1C [Sunitinib, reference compound]	–	–	–	–	–	–	–	Minimum Active Conc. inhibiting microtube formation [12]: 3 µM
COc1ccc(CCCc2cccc(NC(=O)Nc3ccccc3Cl)c2)cc1 [C.8]	47 ± 2	> 100	> 100	134 to 136	–	37 ± 8	> 100	–
COc1ccc(CCCc2cccc(NC(=O)Nc3ccccc3Br)c2)cc1 [C.11]	15 ± 4	20 ± 5	~20	137 to 140	26 ± 18	27 ± 4	~20	IC50 [5]: 25 ± 1 µM
COc1ccc(CCCc2cccc(NC(=O)Nc3cccc(Br)c3)c2)cc1 [C.10]	11 ± 2	8 ± 2	~20	141 to 144	18 ± 7	9 ± 4	~20	IC50 [5]: 17 ± 7 µM

Second part, led by results:

IC50 [1] [µM]	IC50 [2] [µM]	IC50 ([4]; Homo sapiens, Jurkat, 48 h) [µM]	melting point [°C]	IC50 [4] [µM]	SMILES	IC50 [3] [µM]	IC50 ([5]; Homo sapiens, HMEC-1, 48 h) [µM]	other results
19 ± 2	6 ± 1	> 100	–	–	Cc1c(COc2ccc(CN3CCCCC3C(=O)O)cc2Br)cccc1-c1ccccc1 (stereo not drawn) [BMS-8, reference compound]	60 ± 10	–	inhibition of PD-L1 expression ([6]; HT-29, total PD-L1, 20 μM): around 15%; total PD-L1 (%) expression ([6]; 20 μM): 82 ± 21%; total PD-L1 (%) expression ([6]; 100 μM): 67 ± 20%; total VEGFR-2 (%) expression [7]: 86 ± 21%; HT-29 cancer cell proliferation in co-culture ([8]; 1:5 HT-29/THP-1, 24 h): 11 ± 6; HT-29 cancer cell proliferation in co-culture ([8]; 1:5 HT-29/THP-1, 48 h): 21 ± 3; HT-29 cancer cell proliferation in co-culture ([8]; 2:1 HT-29/THP-1, 24 h): 8 ± 1; HT-29 cancer cell proliferation in co-culture ([8]; 2:1 HT-29/THP-1, 48 h): 16 ± 2; THP-1 cell proliferation in co-culture ([9]; 1:5 HT-29/THP-1, 24 h): 158 ± 6; THP-1 cell proliferation in co-culture ([9]; 1:5 HT-29/THP-1, 48 h): 124 ± 0; THP-1 cell proliferation in co-culture ([9]; 2:1 HT-29/THP-1, 24 h): 385 ± 12; THP-1 cell proliferation in co-culture ([9]; 2:1 HT-29/THP-1, 48 h): 186 ± 10; % CD80 expression in membrane of THP-1 [10]: 93 ± 3%; % CD11b expression in membrane of THP-1 [11]: 79 ± 5%
1.9 ± 0.6	7 ± 1	> 100	–	–	COc1ccc(CCCc2cccc(NC(=O)Nc3ccc(Br)cc3)c2)cc1 [C.9]	2.1 ± 0.2	> 100	–
17 ± 4	27 ± 2	–	–	–	CNC(=O)c1cc(Oc2ccc(NC(=O)Nc3ccc(Cl)c(C(F)(F)F)c3)cc2)ccn1 [Sorafenib, sorafenib, reference compound]	5 ± 0.7	34 ± 3	effect on total PD-L1 ([6]; HT-29, at either of the tested doses (20 and 100 μM)): No significant effect; total PD-L1 (%) expression ([6]; 20 μM): 96 ± 49%; total PD-L1 (%) expression ([6]; 100 μM): 102 ± 10%; Minimum Active Conc. inhibiting microtube formation [12]: 10 µM
8 ± 5	18 ± 5	~20	107 to 110	24 ± 4	COc1ccc(CCCc2cccc(NC(=O)Nc3cccc(OC)c3)c2)cc1 [C.13]	15 ± 3	~20	–
14 ± 3	19 ± 1	~20	143 to 147	17 ± 1	COc1ccc(CCCc2cccc(NC(=O)Nc3cccc(Cl)c3)c2)cc1 [C.7]	14 ± 3	~20	IC50 [5]: 18 ± 8 µM
